Earlier results in PMC9781794, “Polyphosphazene-Based Biomaterials for Biomedical Applications” (International Journal of Molecular Sciences, 2022).

Legend:
[1] = buffer
[2] = test system: bacterial species (Gram-positive, Gram-negative, and Mycobacteria); design: method as in PMID 36040292; settings: both Gram-positive and Gram-negative strains; ref [108]

degradation half-life (T1/2) [1] | Substance | anti-bacterial activity [2] | anti-bacterial potency range [2]
~ 1 year | valine | – | –
– | [N3P3(NHCy)6{Au(PPh3)}2{Ag(PPh3)}](NO3)3 [Sample 13] | excellent | nanomolar range
